Experiments:
[1] = system: rotavirus; experiment: Children with severe rotavirus disease, versus placebo; assay type: in vivo, human; settings: 7.5 mg/kg twice daily oral, compared to placebo
[2] = system: human colon cancer cell lines; experiment: Replication of human colon cancer cell lines and other cell lines; assay type: cell-based; settings: human colon cancer cell lines and a variety of other cell lines
From the text: (§1) Cell culture studies of the mechanism of action by which tizoxanide suppresses rotavirus infection have been carried out. […] Studies have shown that tizoxanide binds to PDI-4 of Giardia intestinalis (an extra-cellular protozoan) and that tizoxanide is effective in vitro against Giardia intestinalis. • b. Studies have shown that tizoxanide binds to PDI isolated from Neospora caninum (intracellular protozoan) and is effective in vitro against this organism. • c. […] Studies in humans have shown that adults with chronic hepatitis B or with chronic hepatitis C can be effectively treated by administering nitazoxanide 500 mg (in tablet form) twice daily for 24 weeks with the patients having undetectable virus DNA or RNA in their serum at the end of treatment.

[3] = Human subject with elevated liver enzymes due to autoimmune hepatitis; assay type: in vivo; settings: 500 mg twice daily orally, 10-day course
From the text: as §1

[4] = system: chronic hepatitis B; experiment: Adults with chronic hepatitis B, serum virus DNA; assay type: in vivo, human; settings: 500 mg tablet twice daily for 24 weeks
From the text: as §1

[5] = system: chronic hepatitis C; experiment: Adults with chronic hepatitis C, serum virus RNA; assay type: in vivo, human; settings: 500 mg tablet twice daily for 24 weeks
From the text: as §1

[6] = system: PDI-4 of Giardia intestinalis; experiment: Binding to PDI-4 of Giardia intestinalis
From the text: as §1

[7] = system: Giardia intestinalis; experiment: In vitro efficacy against Giardia intestinalis; assay type: cell-based; settings: extra-cellular protozoan
From the text: as §1

[8] = system: pro-inflammatory cytokines: IL-2, IL-4, IL-5, IL-6, IL-8, IL-10, IL-12 and TNF-alpha; experiment: Secretion of pro-inflammatory cytokines; assay type: cell-based
From the text: as §1

[9] = system: rotavirus; experiment: Cell culture studies of the mechanism by which tizoxanide suppresses rotavirus infection; assay type: cell-based
From the text: as §1

[10] = system: Neospora caninum; experiment: In vitro efficacy against Neospora caninum (tizoxanide); assay type: cell-based; settings: intracellular protozoan
From the text: as §1

[11] = target: T1, PDI isolated from Neospora caninum (Neospora caninum, UniProt F0VAI6); experiment: Binding to PDI isolated from Neospora caninum
T1 construct: PDI isolated from Neospora caninum; from tissue; host or cells: Neospora caninum (parasite material)
T1 sequence (F0VAI6 entry or part of it): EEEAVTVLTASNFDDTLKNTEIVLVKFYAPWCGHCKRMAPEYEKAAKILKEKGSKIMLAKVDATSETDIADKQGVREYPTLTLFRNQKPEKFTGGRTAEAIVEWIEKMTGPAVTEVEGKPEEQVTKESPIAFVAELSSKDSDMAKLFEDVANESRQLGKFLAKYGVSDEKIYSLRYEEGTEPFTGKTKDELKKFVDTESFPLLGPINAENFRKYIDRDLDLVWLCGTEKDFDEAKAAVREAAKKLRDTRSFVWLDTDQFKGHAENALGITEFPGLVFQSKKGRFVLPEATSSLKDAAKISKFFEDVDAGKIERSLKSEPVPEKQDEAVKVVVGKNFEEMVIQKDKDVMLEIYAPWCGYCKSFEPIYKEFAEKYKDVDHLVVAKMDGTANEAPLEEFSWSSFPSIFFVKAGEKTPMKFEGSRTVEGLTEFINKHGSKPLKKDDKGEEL
From the text: as §1

[12] = system: Neospora caninum; experiment: In vitro or cell culture activity against Neospora caninum (compounds 1-13); assay type: cell-based
From the text: (§2) The following compounds numbered 1-13 in the table below have been synthesized and tested in vitro or in cell culture against Neospora caninum (a protozoan), para-influenza virus, sendai virus, influenza A virus, and/or rhinovirus. In addition, applicant notes that compounds 12 and 13 have shown good activity against viruses and Neospora caninum.

[13] = system: para-influenza virus, sendai virus, influenza A virus, and/or rhinovirus; experiment: In vitro or cell culture activity against viruses; assay type: cell-based
From the text: as §2

[14] = system: IL-1β, IL-6 and TNF-alpha; experiment: Cytokine suppressing ability in cell culture; assay type: cell-based; settings: in particular IL-1β

CC(=O)Oc1ccccc1C(=O)Nc1ncc([N+](=O)[O-])s1 [nitazoxanide]
duration of illness [1]: significantly reduces the duration of illness
replication of cell lines [2]: inhibits the replication
liver transaminases [3]: reduced liver transaminases to normal levels
virus DNA in serum at end of treatment [4]: undetectable
virus RNA in serum at end of treatment [5]: undetectable

O=C(Nc1ncc([N+](=O)[O-])s1)c1ccccc1O [tizoxanide]
binding to PDI-4 [6]: binds
efficacy in vitro [7]: effective
secretion of pro-inflammatory cytokines [8]: inhibits secretion
VP7 maturation to a stage allowing glycosylation [9]: prevented VP7 from reaching a stage of maturation that allowed it to be glycosylated
effect on viral transcription [9]: did not affect
maturation of virus protein [9]: prevent maturation of virus protein
effect on synthesis and/or maturation of VP7 ([9]; single protein identified as VP7): selectively affects
efficacy in vitro [10]: effective
binding to PDI [11]: binds

O=C(Nc1cccc(F)c1)c1ccccc1O [Compound 12, N-(3-fluorophenyl)-2-hy-droxybenzamide]
activity against Neospora caninum [12]: good activity
activity against viruses [13]: good activity

CC(=O)Oc1c(C)cccc1C(=O)Nc1ncc(Br)s1 [Compound 3]
suppression of cytokines [14]: showed activity in suppressing cytokines

O=C(Nc1cccc(Cl)c1)c1ccccc1O [Compound 13, N-(3-chlorophenyl)-2-hy-droxybenzamide]
activity against Neospora caninum [12]: good activity
activity against viruses [13]: good activity

Source: patent publication US20070015803A1, “Methods for treating diseases through interruption of protein maturation, compounds that inhibit the function of molecular chaperones such as protein disulfide isomerases or interfere with glycosylation, pharmaceutical compositions comprising them, and screening methods for identifying therapeutic …” (Romark Laboratories L.C., priority 2005, published 2007)
